Measured values from patent US20090214578A1, “Immunostimulatory Single-Stranded Ribonucleic Acid with Phosphodiester Backbone” (priority 2005, published 2009).
Strand notation (5' to 3'): a small letter for the sugar, then the base; units joined by * are phosphorothioate-linked, units joined directly phosphodiester-linked; [ ] holds rarer units or linkages, { } end groups; capitals alone tell only the bases. r = 2'-OH (RNA)

Assays:
murine cells [1] = test: Stimulatory capacity of ORN with PTO or PD backbone in murine cells; type: cell-based; details: TLR7-independent fashion
From the text: (§1) To further investigate the role of TLR9 in the recognition of PD ssRNA, various RNA sequences, such as RNA41 (5′-[…]-3′; SEQ ID NO:4) and RNA42 (5′-[…]-3′; SEQ ID NO:5) that have been previously described as not active in murine cells when synthesized with a PTO backbone (Heil, Hemmi et al. 2004), were synthesized.

human PBMCs = test: Stimulatory capacity of ORN with PTO or PD backbone in human PBMCs; type: cell-based
From the text: as §1

TLR9-deficient mDC = test: IL-12p40 production by TLR9-deficient mDC; type: cell-based, murine
From the text: as §1

pDC, wild-type cells = test: Recognition of ssRNA by pDC, wild-type cells; type: cell-based, murine; details: for Recognition by pDC: wild-type cells
From the text: as §1

[2] = system: pDC, TLR7-single deficient cells; test: Recognition of ssRNA by pDC, TLR7-single deficient cells; type: cell-based, murine
From the text: as §1

[3] = system: pDC, TLR9-single deficient cells; test: Recognition of ssRNA by pDC, TLR9-single deficient cells; type: cell-based, murine
From the text: as §1

[4] = system: Wild-type FLT3-L-induced DCs; test: IL-12 secretion of siRNA-treated wild-type FLT3-L-induced DCs on ssRNA stimulation; type: cell-based, murine; details: wild-type FLT3-L-induced DCs treated with mTLR8-specific siRNA; for reduction in IL-12 secretion in mTLR8-specific siRNA-treated cells: then stimulated with the ORN
From the text: (§2) The reduction in RNA63-driven immune activation correlated with siRNA-driven downregulation of mTLR8 RNA.

murine cells [5] = details: synthesized with a PTO backbone; Heil, Hemmi et al. 2004; cited from earlier work
[6] = system: TLR3/TLR7 double deficient FLT3-L-induced DCs; test: ssRNA stimulation of TLR3/TLR7 double deficient FLT3-L-induced DCs; type: cell-based, mice
From the text: (§3) Since the ssRNA-driven TLR7-independent immune stimulation is dependent on MyD88 and endosomal maturation, it was hypothesized that other intracellular TLRs are involved. TLR3 seems a poor candidate for the recognition of ssRNA since it mainly relies on the adaptor molecule TRIF and not MyD88 (Hoebe, Du et al. 2003). Nevertheless, to rule out TLR3 as receptor for ssRNA, TLR3- and TLR7-deficient mice were crossed to obtain TLR3/TLR7 double deficient mice, and immune cells from these mice were tested for ssRNA stimulation. […] TLR7/TLR9 double deficient mice were also generated to investigate the involvement of TLR9 in RNA63 recognition.

[7] = system: TLR7/TLR9 double deficient GM-CSF-derived DCs; test: ssRNA stimulation of TLR7/TLR9 double deficient GM-CSF-derived DCs; type: cell-based, mice
From the text: as §3

[8] = system: TLR7/TLR9 double deficient sorted mDCs; test: ssRNA stimulation of TLR7/TLR9 double deficient sorted mDCs; type: cell-based, mice
From the text: as §3

[9] = system: TLR7-deficient FLT3-L-induced DCs; test: RNA63-induced activation of siRNA-transfected TLR7-deficient FLT3-L-induced DCs; type: cell-based, murine
From the text: as §2

[10] = system: peripheral blood mononuclear cells from wild-type mice; test: IL-12p40 ELISA on supernatants of peripheral blood mononuclear cells, wild-type mice; type: cell-based; details: added with DOTAP, 24 hours, FIG. 2
Method: (§4) Peripheral blood mononuclear cells were isolated from wild-type and TLR7−/− mice, transferred into suitable growth medium, and then aliquoted separately into individual wells of multiwell culture plates. The following agents were added to individual wells of cells: RNA63 PD, a single-stranded ORN having a nucleotide sequence provided as 5′-CAGGUCUGUGAU-3′ (SEQ ID NO:1), in which all internucleotide linkages are phosphodiester except for a phosphorothioate linkage between the A and U at the 3′ end of the ORN; RNA63 PTO, a single-stranded ORN having the same nucleotide sequence as SEQ ID NO: 1, in which every internucleotide linkage is phosphorothioate; CpG-ODN 1668, an oligodeoxynucleotide having a nucleotide sequence provided as 5′-[…]-3′ (SEQ ID NO:2); DOTAP alone; R-848; RNA63 PTO plus DOTAP; RNA63 PD plus DOTAP; and medium alone. Cells were maintained in culture for 24 hours, and then supernatants from individual wells collected and analyzed using enzyme-linked immunosorbent assay (ELISA) specific for IL-12p40. Data are presented as mean±SEM.

[11] = system: peripheral blood mononuclear cells from TLR7−/− mice; test: IL-12p40 ELISA on supernatants of peripheral blood mononuclear cells, TLR7−/− mice; type: cell-based; details: TLR 7−/− cells, added with DOTAP, 24 hours, FIG. 2
Method: as §4

[12] = system: wild-type FLT3-L-induced dendritic cells; test: Cytokine ELISA (IL-12p40, IL-6, IFN-α), FLT3-L-induced dendritic cells, wild-type; type: cell-based, mice; details: with DOTAP, 24 hours; for IL-12p40 induction: FIG. 3A; for IL-6 induction: FIG. 3B; for IFN-α induction: FIG. 3C
Method: (§5) FLT3-L-induced dendritic cells were prepared from wild-type and TLR7−/− mice and cultured in the presence of varied amounts of RNA63 PD or RNA63 PTO, each with DOTAP. After 24 hours incubation, supernatants were collected and analyzed by ELISA for IL-12p40, IL-6, and IFN-α. LPS, R-848, CpG-ODN 1668, CpG-ODN 2216 (5′-GGGGGACGATCGTCGGGGG-3′, SEQ ID NO:3), DOTAP alone, and medium alone were run as controls. Data are presented as mean±SEM.

[13] = system: TLR7−/− FLT3-L-induced dendritic cells; test: Cytokine ELISA (IL-12p40, IL-6, IFN-α), FLT3-L-induced dendritic cells, TLR7−/−; type: cell-based, mice; details: for IFN-α induction / IL-6 induction / IL-12p40 induction: with DOTAP, 24 hours
Method: as §5

[14] = system: wild-type FLT3-L-induced dendritic cells; test: FACS for CD69 on FLT3-L-induced dendritic cells, wild-type; type: cell-based, mice; details: with DOTAP, 24 hours, FIG. 4
Method: (§6) FLT3-L-induced dendritic cells were prepared from wild-type and TLR7−/− mice and cultured for 24 hours in the presence of RNA63 PD or RNA63 PTO, each with DOTAP, as in Example 2. After 24 hours incubation, cells were collected and analyzed by FACS for CD69.

[15] = system: TLR7−/− FLT3-L-induced dendritic cells; test: FACS for CD69 on FLT3-L-induced dendritic cells, TLR7−/−; type: cell-based, mice; details: with DOTAP, 24 hours, FIG. 4
Method: as §6

[16] = system: M-CSF-derived macrophages from wild-type mice; test: IL-12p40 ELISA, M-CSF-derived macrophages, wild-type; type: cell-based; details: with DOTAP, 24 hours, FIG. 5
Method: (§7) M-CSF-derived macrophages and GM-CSF-derived dendritic cells were prepared from wild-type and TLR7−/− mice and cultured for 24 hours in the presence of RNA63 PD plus DOTAP, RNA63 PTO plus DOTAP. LPS, R-848, CpG-ODN 1668, CpG-ODN 2216, DOTAP alone, or medium alone. Culture supernatants were then collected and analyzed using ELISA for IL-12p40. Data are presented as mean±SEM.

[17] = system: TLR7−/− M-CSF-derived macrophages; test: IL-12p40 ELISA, M-CSF-derived macrophages, TLR7−/−; type: cell-based, mice; details: with DOTAP, 24 hours, FIG. 5
Method: as §7

[18] = system: GM-CSF-derived dendritic cells from wild-type mice; test: IL-12p40 ELISA, GM-CSF-derived dendritic cells, wild-type; type: cell-based; details: with DOTAP, 24 hours, FIG. 5
Method: as §7

[19] = system: TLR7−/− GM-CSF-derived dendritic cells; test: IL-12p40 ELISA, GM-CSF-derived dendritic cells, TLR7−/−; type: cell-based, mice; details: with DOTAP, 24 hours, FIG. 5
Method: as §7

MyD88−/− dendritic cells [20] = test: IL-12p40 ELISA, FLT3-L-induced dendritic cells, MyD88−/−; type: cell-based, mice; details: with DOTAP, 24 hours, FIG. 6
Method: (§8) FLT3-L-induced dendritic cells were separately prepared from wild-type, TLR7−/−, and MyD88−/− mice and cultured for 24 hours in the presence of RNA63 PD or RNA63 PTO, each with DOTAP, as in Example 2. After 24 hours incubation, cells were collected and analyzed by ELISA for IL-12p40 and by FACS for CD69.

MyD88−/− dendritic cells [21] = test: FACS for CD69, FLT3-L-induced dendritic cells, MyD88−/−; type: cell-based, mice; details: with DOTAP, 24 hours, FIG. 6
Method: as §8

TLR7-deficient mDC = test: IL-12p40 production by TLR7-deficient mDC; type: cell-based, murine; details: TLR7-single deficient mDC
From the text: as §1

5′-ACCCAUCUAUUAUAUAACUC-3′ (listed as RNA, chemistry not fully specified) [RNA42 PD]
IFN-α stimulation (murine cells [1]): stimulate
IL-6 stimulation (murine cells [1]): stimulate
IL-12p40 stimulation (murine cells [1]): stimulate
IFN-α stimulation (human PBMCs): no IFN-α
TNF-α stimulation (human PBMCs): stimulate
IL-12p40 production (TLR9-deficient mDC): failed to produce IL-12p40

5′-ACCCAUCUAUUAUAUAACUC-3′ (listed as RNA, chemistry not fully specified) [RNA42, PTO in the cited result, probably PD in pDC and siRNA tests]
Recognition by pDC (pDC, wild-type cells): also recognized
Response of pDC [2]: failed to respond
Response of pDC [3]: failed to respond
reduction in IL-12 secretion in mTLR8-specific siRNA-treated cells [4]: 50%
Activity in murine cells (murine cells [5]): not active

5′-CAGGUCUGUGAU-3′ (listed as RNA, chemistry not fully specified) [RNA63]
RNA63-driven CD69 upregulation [6]: still functional
RNA63-driven IL-12p40 production [6]: still functional
CD69 upregulation [7]: failed
IL-12p40 production [7]: failed to produce IL-12p40
CD69 upregulation [8]: failed
IL-12p40 production [8]: failed to produce IL-12p40
RNA63-induced IL-12p40 production in DCs treated with mTLR8-specific siRNA [9]: strong reduction
activation markers such as CD40 in DCs treated with mTLR8-specific siRNA ([9]; RNA63 stimulation): downregulation

5′-CAGGUCUGUGAU-3′ [RNA63 PD] (one 3' phosphorothioate linkage, chemistry not fully specified)
IL-12p40 induction [10]: induced IL-12p40
IL-12p40 induction [11]: induced IL-12p40
IL-12p40 induction [12]: induced significant amounts
IL-6 induction [12]: induced significant amounts
IFN-α induction [12]: induced significant amounts
Dependence of the amount of IL-12p40 induced on concentration ([13]; varied amounts of ORN with DOTAP): varied in proportion to the concentration
IFN-α induction [13]: albeit less strongly
IL-6 induction [13]: albeit less strongly
IL-12p40 induction [13]: induced IL-112p40
CD69 induction [14]: induced significant amounts of CD69
CD69 induction [15]: induced CD69
IL-12p40 induction [16]: induced significant amounts of IL-12p40
IL-12p40 induction [17]: induced significant amounts of IL-12p40
IL-12p40 induction [18]: induced significant amounts of IL-12p40
IL-12p40 induction [19]: induced significant amounts of IL-12p40
induction of IL-12p40 (MyD88−/− dendritic cells [20]): absent
induction of CD69 (MyD88−/− dendritic cells [21]): absent

5′-CAGGUCUGUGAU-3′ [RNA63 PTO] (rC*rA*rG*rG*rU*rC*rU*rG*rU*rG*rA*rU) [reference compound]
IL-12p40 induction [10]: induced IL-12p40
IL-12p40 induction [11]: not
IL-12p40 induction [12]: induced significant amounts
IL-6 induction [12]: induced significant amounts
IFN-α induction [12]: induced significant amounts
IFN-α induction [13]: not
IL-6 induction [13]: not
IL-12p40 induction [13]: not
CD69 induction [14]: induced significant amounts of CD69
CD69 induction [15]: not
IL-12p40 induction [16]: induced significant amounts of IL-12p40
IL-12p40 induction [17]: not
IL-12p40 induction [18]: induced significant amounts of IL-12p40
IL-12p40 induction [19]: not
induction of IL-12p40 (MyD88−/− dendritic cells [20]): absent
induction of CD69 (MyD88−/− dendritic cells [21]): absent

5′-GCCCGACAGAAGAGAGACAC-3′ (listed as RNA, chemistry not fully specified) [RNA41 PD]
IFN-α stimulation (murine cells [1]): stimulate
IL-6 stimulation (murine cells [1]): stimulate
IL-12p40 stimulation (murine cells [1]): stimulate
IFN-α stimulation (human PBMCs): no IFN-α
TNF-α stimulation (human PBMCs): stimulate
IL-12p40 production (TLR9-deficient mDC): failed to produce IL-12p40

5′-GCCCGACAGAAGAGAGACAC-3′ (listed as RNA, chemistry not fully specified) [RNA41, PTO in the cited result, probably PD in pDC and siRNA tests]
Recognition by pDC (pDC, wild-type cells): also recognized
Response of pDC [2]: failed to respond
Response of pDC [3]: failed to respond
reduction in IL-12 secretion in mTLR8-specific siRNA-treated cells [4]: 75%
Activity in murine cells (murine cells [5]): not active

5′-GCCCGUCUGUUGUGUGACUC-3′ [RNA40, reference compound]
IL-12p40 production (TLR9-deficient mDC): induced some IL-12p40
IL-12p40 production (TLR7-deficient mDC): induced some IL-12p40
TLR dependence of recognition by pDC (pDC, wild-type cells; GU-rich RNA): TLR7-dependent fashion
Influence of mTLR8-specific siRNA on stimulation [4]: not influenced
